The values that follow come from publication PMC8002512, “IRE1α Is a Therapeutic Target for Cystic Fibrosis Airway Inflammation” (International Journal of Molecular Sciences, 2021).

The assay addresses T1, IRE1α (Homo sapiens, UniProt O75460).
T1 construct: gene ERN1; cytoplasmic portion, kinase and RNase domains, residues 547-977 of NP_001424, N-terminal His-tagged (Sf9)
The assay can be described thus: TR-FRET (LanthaScreen) displacement of tracer […] from purified His-tagged IRE1α. It counts as binding. For orientation: Time-resolved FRET reads energy transfer from a long-lived donor to a nearby acceptor.

T1 sequence (O75460 547-977): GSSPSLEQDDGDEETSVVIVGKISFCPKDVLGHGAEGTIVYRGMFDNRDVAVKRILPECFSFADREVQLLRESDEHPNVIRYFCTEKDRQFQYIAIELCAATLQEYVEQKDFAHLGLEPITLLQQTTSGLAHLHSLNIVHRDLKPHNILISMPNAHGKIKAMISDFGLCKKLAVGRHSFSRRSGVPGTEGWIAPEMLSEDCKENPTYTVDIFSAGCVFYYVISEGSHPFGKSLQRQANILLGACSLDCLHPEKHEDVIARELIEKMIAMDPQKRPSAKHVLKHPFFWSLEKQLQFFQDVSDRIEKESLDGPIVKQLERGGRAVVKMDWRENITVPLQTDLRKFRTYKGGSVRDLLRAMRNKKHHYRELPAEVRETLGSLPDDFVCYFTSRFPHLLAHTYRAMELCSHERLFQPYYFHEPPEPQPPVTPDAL

Regarding `CC(C)(C)c1nc(-c2ccc(NC(=O)Nc3cccc(C(F)(F)F)c3)c3ccccc23)c2c(N)nccn12` [KIRA6], the dissociation constant Kd was 280 nM.

As a reminder, the Kd is the equilibrium constant for the complex coming apart.
